Laboratory results published in patent US20240285525A1, “METHODS AND MATERIALS FOR TREATING CANCER” (The Johns Hopkins University, priority 2021, published 2024).

Experiments:
GL261 cells [1] = test: Inhibition of endocytosis (nanotube uptake, flow cytometry); assay type: cell-based, mouse; details: inhibitor 30 min then nanotubes 3 hours, 30 μg/mL DMA, 500 μg/mL fucoidan, 10 μM LatB
Method: 200,000 GL261 cells were plated per well in 12-well plates and incubated at 37° C. and 5% CO2 overnight. The following day, media was replaced with fresh media, and inhibitor stock solutions were diluted and delivered to the cells at targeted concentrations: 1.25 μg/mL cytochalasin D (CytD), 10 μM latrunculin B (LatB), 15 μg/mL nocodazole, 5 μg/mL fillipin, 2.5 μg/mL nystatin, 1.32 mg/mL methyl-β-cyclodextrin (MPCD), 2.5 μg/mL chlorpromazine (CPZ), 12.5 μg/mL dynasore, 0.2 μg/mL pertussis toxin (PTX), 2 μg/mL cholera toxin (CTX), 30 μg/mL 5-(N,N-dimethyl)-amiloride hydrochloride (DMA), and 500 μg/mL fucoidan. Cells with no inhibitor were used as positive controls. Plates were gently shaken by hand to ensure even distribution of inhibitors, and placed in the incubator for 30 minutes. […] Cells were washed twice with 1 mL PBS, trypsin-EDTA at 37° C. was added to each well, the contents of each well were individually mixed via up and down pipetting and transferred to 1.5 mL centrifuge tubes. Cells were washed twice with PBS, reconstituted in 500 μL PBS and transferred to flow cytometry tubes. 5 μL of 10 μg/mL propidium iodide (PI) solution was added to each tube and vortexed. The cells were run on a BD FACSCanto flow cytometer and were examined for PI and HEX fluorescence via excitation at 488 nm with a 585/42 filter. Cells were gated by PI staining to select for live cells, and by scattering (FSC-A and SSC-A) to select for single cells. To evaluate cytotoxicity of inhibitors, 10,000 GL261 cells were plated in 96-well plates and incubated overnight in a 37° C. 5% C02 incubator. The next day, media was replaced with fresh formulated media, and inhibitor stock solutions were diluted and delivered to the cells at concentrations mentioned above. Plates were gently shaken by hand and placed in the incubator for 3 hours. Cell viability was measured using CellTiter-Glo 2.0 assay (Promega, Madison, WI) following the manufacturer's protocol. Luminescence was recorded using a Synergy H1 microplate reader (Biotek, Winooski, VT), and cell viability was normalized to untreated cells.

GL261 cells [2] = test: Cell viability (CellTiter-Glo 2.0); assay type: cell-based, mouse; details: 12 hours + 36 hours at 37° C.; NT 5-6.4 μM ssDNA-amphiphiles, DOX 5 μg/mL, NT-DOX same concentrations; normalized to untreated
Method: The samples were incubated with cells for 12 hours at 37° C., followed by a single wash with PBS. 100 μL of fresh media was added, and cells were incubated at 37° C. for an additional 36 hours. […] The luminescence signal of each well was measured, and the luminescence of each group was normalized to the luminescence of the untreated cells.

[3] = Histopathological analysis of organs (H&E); assay type: in vivo, mouse
Text: 8 week old mice were used for this study. […] The photon counts within each ROI were quantified.
Following perfusion and fixation with 10% neutral buffered formalin, tissues were processed into paraffin blocks using standard histology techniques, sectioned at a thickness of […], stained with hematoxylin and eosin (H&E), and evaluated using light microscopy.

[4] = tested on: GL261-Luc orthotopic tumor; test: Intracranial delivery via CED in orthotopic GL261-Luc mouse model
[5] = tested on: M2 macrophages from primary CD14+human monocytes; test: Macrophage gene expression via RT-qPCR; assay type: cell-based; details: 1 μM TS free or in nanotubes, or empty nanotubes; compared to untreated M2-macrophages
Method: Freshly isolated primary CD14+human monocytes were plated at a density of 500,000 cells/well in the presence of 50 ng/mL of M-CSF (macrophage colony stimulating factor) to differentiate them to MO-macrophages. The media were renewed with the same composition (DMEM+10% FBS+1% Penicillin-Streptomycin+50 ng/mL M-CSF) every 2-3 days until complete differentiation. The macrophages were treated with 20 ng/mL of IL-4 for 3 days differentiate them to an M2-phenotype.
Cells were detached using 1× Tryp1E Express Enzyme (ThermoFisher Scientific) and washed with PBS. TRIzol (ThermoFisher Scientific) was added to the cells followed by absolute ethanol. mRNA was collected in Zymo-Spin IC columns (Zymo Research) by centrifuging the cell solution in the spin columns. The mRNA was washed and resuspend in RNAse and DNAse free water. After evaluating the mRNA concentration, the cDNA reaction mixture was prepared by adding the mRNA to nuclease-free water, iScript Reverse Transcriptase (Bio-Rad) and 5× iScript Reaction Mix. The cDNA reaction was performed using TurboCycler Lite Thermal Cycler (Blue-Ray Biotech). The cDNA was then aliquoted and added to a mixture of primers for the genes 1112b, 118, Nos2, 1110, Tgfb1 and Fizz1 respectively along with iTaq™ Universal SYBR® Green Supermix (Bio-Rad). […] Data was analysed using the ΔΔCt method. […]

CN(C)c1nc(N)c(C(=O)N=C(N)N)nc1Cl.Cl [DMA, 5-(N,N-dimethyl)-amiloride hydrochloride]
inhibition of cellular uptake of the nanotubes (GL261 cells [1]): 44%

COc1cccc2c1C(=O)c1c(O)c3c(c(O)c1C2=O)C[C@@](O)(C(=O)CO)C[C@@H]3O[C@H]1C[C@H](N)[C@H](O)[C@H](C)O1.Cl [DOX, Doxorubicin-hydrogen chloride]
viability of GL261 cells (GL261 cells [2]): 47±6%
histology of liver [3]: multifocal areas of hepatocyte degeneration and necrosis
histology of spleen [3]: diffuse, moderate to marked depletion of the spleen white pulp associated with zonal lymphocytic apoptosis and necrosis
histology of lung, kidney and heart tissues ([3]; compared to the PBS control): no significant findings
body weight gained ([4]; after 28 days): 6%
decrease in tumor signal (bioluminescence) ([4]; day 28, pump 70 μM DOX (0.2 mg DOX/Kg mouse), about 14 days, 0.25 μL/hour): 80%
median survival time ([4]; n=9-10 per group, NT 95 μM ssDNA-amphiphiles, DOX 70 μM): 34.5 days

C/C1=C/C(=O)O[C@@H]2C[C@@H](CC[C@H](C)/C=C\CC1)O[C@@](O)([C@@H]1CSC(=O)N1)C2 [LatB, latrunculin B]
inhibition of cellular uptake of the nanotubes (GL261 cells [1]): 20%

C=C(NC(=O)C(=C)NC(=O)c1csc(C2=N[C@@H]3c4csc(n4)[C@H]4NC(=O)c5csc(n5)[C@H]([C@](C)(O)[C@@H](C)O)NC(=O)[C@H]5CSC(=N5)/C(=C/C)NC(=O)[C@H]([C@@H](C)O)NC(=O)c5csc(n5)[C@]3(CC2)NC(=O)[C@H](C)NC(=O)C(=C)NC(=O)[C@H](C)NC(=O)[C@H]([C@@H](C)CC)N[C@@H]2C=Cc3c([C@H](C)O)cc(nc3[C@H]2O)C(=O)O[C@@H]4C)n1)C(N)=O [free TS, thiostrepton]
expression of genes associated with M2-like macrophages (ΔΔCt) [5]: successful at downregulating genes associated with M2-like macrophages
expression of genes of M1-like macrophages (ΔΔCt) [5]: upregulating genes of M1-like macrophages

fucoidan
inhibition of cellular uptake of the nanotubes (GL261 cells [1]): 57%
